Data on 16 compounds can be found in PubChem BioAssay (NCI).

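Compound exposure: 48 hours, 5 concentrations, 96-well plates. Abbreviation: GI50, concentration required for 50% inhibition of growth. TGI denotes the concentration required for complete inhibition of growth.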 Some results are limits rather than exact numbers.

Common to all, as to test: inhibition of tumour cell growth, NCI panel, 48 h
The test system of test [1] is MOLT-4 leukemia.
Test [2] concerns NCI-H522 lung.
The test system of test [3] is 786-0 renal.
Test [4] concerns A549 NSCLC.
Test [5] relates to SN12C renal.
In test [6] the test system is SF-539 CNS.
The test system of test [7] is HOP-62 NSCLC.
Test [8] concerns SK-OV-3 ovarian.
The test system of test [9] is NCI-H226 lung.
Test [10] concerns EKVX NSCLC.

As to `Oc1c2c(c(O)c3ccccc13)=N[C@@H](c1ccccc1)[C@H](c1ccccc1)N=2`, the TGI in [1], in [2], in test [3], in test [4], in test [5] and in test [6] was over 100 µM in each case. In addition, the TGI in [7], in test [8] and in test [9] was over 100 µM throughout.

On to `NC1=NC(=O)C(CC(=O)Nc2ccc([N+](=O)[O-])cc2[N+](=O)[O-])S1` (stereo not given), for which the TGI in test [1], in test [3], in test [4], in test [5], in test [10] and in test [7] was over 100 µM in each case. This compound also displayed a TGI in test [9] of over 100 µM.

Turning to `CCCS(=O)(=O)c1nc(NC2CC2)cc(-c2ccc3c(ccn3C3CC(C)(C)NC(C)(C)C3)c2)n1`, the GI50 is 2.02 µM in [1]; 1.21 µM in test [3]; 1.88 µM in test [5]; 1.84 µM in test [10]; 1.73 µM in test [7]; 1.86 µM in [8]. Also, in [9], the GI50 was 1.74 µM. Besides, the TGI in [1] was determined as 4.57 µM; in [3], 2.64 µM; in test [5], 3.8 µM; in [10] it was 3.71 µM; in test [7], 3.4 µM; in test [8], 3.46 µM. Further, in test [9], the TGI is 3.71 µM.

In the case of `CN1CCN(C)C1c1cccc(C2N(C)CCN2C)c1`, the TGI in test [1], in test [2], in test [3], in [5], in [6] and in test [7] was over 100 µM each time. Moreover, the TGI in test [8] and in test [9] was over 100 µM in each case.

For `CCCCCC(C(O)C#N)C(O)(C(F)(F)F)C(F)(F)F` (stereo not given), the TGI in [1], in test [2], in test [3], in test [4], in [5] and in test [6] was over 10 µM throughout. The TGI in test [7] and in test [8] was over 10 µM in each case.

On to `CC1=C(C)C(=O)O[C@@H]([C@](C)(O)[C@]2(O)CC[C@@]3(O)[C@@H]4C[C@H]5O[C@]56CC=CC(=O)[C@]6(C)[C@H]4CC[C@]23C)C1`, for which the GI50 in test [1] was 0.0786 µM; in [2], 0.1 µM; in test [3], 0.284 µM; in test [4], 0.568 µM; in [5], 0.411 µM; in test [6] it was 0.272 µM. The GI50 in [7] is 0.292 µM; in [8], 0.909 µM; in test [9], 0.453 µM. For the same compound, the TGI in test [1] was 35.2 µM; in [2] it was 0.534 µM; in test [3], 1.96 µM; in test [4], 5.93 µM; in [5] it was 3.63 µM; in [6], 1.62 µM. Moreover, the values for the TGI in test [7], in [8] and in test [9] were 3.39 µM, 18.8 µM and 4.49 µM, respectively.

With `CNC(=O)c1ccc(-c2cnc3ncc(Cc4ccc5ncccc5c4)n3n2)cc1F`, the GI50 is over 100 µM in [1]; 38 µM in test [2]; 64.3 µM in test [3]; over 100 µM in test [4]; over 100 µM in test [5]; 54.1 µM in [6]. The GI50 in test [7] is 94.3 µM; in [8] it was over 100 µM; in [9], 34.6 µM. Besides, the TGI in [1], in test [2], in test [3], in test [4], in [5] and in test [6] was over 100 µM in each case. For the same compound, the TGI in test [7], in test [8] and in [9] was over 100 µM throughout.

In the case of `c1cc[c]([Sn]([S]c2cccc3cccnc23)([c]2ccccc2)[c]2ccccc2)cc1`, the GI50 is 0.0234 µM in test [3]; 0.0331 µM in test [4]; 0.0326 µM in test [5]; 0.0558 µM in [10]; 0.0725 µM in [6]; 0.103 µM in test [7]. In test [8], the GI50 is 0.107 µM. In addition, the TGI came out at 0.0758 µM in [3]; 0.224 µM in test [4]; 0.161 µM in test [5]; 0.37 µM in test [10]; 0.393 µM in test [6]; 0.368 µM in [7]. Further, in test [8], the TGI was 0.356 µM.

Consider `O=C1N[C@@H](O)[C@@H]2ON=C(c3ccccc3)[C@H]12`, for which the TGI in test [1], in test [3], in test [4], in [5], in [10] and in test [6] was over 100 µM throughout. For the same compound, the TGI in [7], in [8] and in [9] was over 100 µM throughout.

`COC(=O)C(Cc1ccccc1)N/C=C\C(=O)c1ccc(Cl)cc1` (stereo not given): the GI50 in [1] was 35.2 µM; in [2], 32.5 µM; in [3] it was 23.6 µM; in test [4], 50.1 µM; in test [5], 16.7 µM; in [6], 18.6 µM. For the same compound, the GI50 in [7] was 25.1 µM; in test [8] it was 26.7 µM; in [9], 26 µM. For the same compound, the TGI in test [1] is over 100 µM; in test [2], over 100 µM; in [3], 61.9 µM; in test [4], over 100 µM; in test [5], 40.5 µM; in [6] it was 45.1 µM. Also, the TGI in test [7] was 67.6 µM; in test [8] it was 92.4 µM; in test [9], 77.3 µM.

On to `CCN(Cc1c(F)cccc1F)c1ccc(CO)c(Cl)c1`, for which the GI50 in test [1] was 22.1 µM; in test [2] it was 15.1 µM; in test [3], 15.3 µM; in [4], 0.445 µM; in test [5] it was 15.4 µM; in test [6], 20.5 µM. Also, the results for the GI50 in test [7], in test [8] and in [9] were 0.327 µM, 1.65 µM and 0.0318 µM, respectively. The TGI in test [1] was 71.7 µM; in [2], 38.8 µM; in test [3], 45.6 µM; in test [4], 10.7 µM; in test [5], 58.5 µM; in [6] it was over 59.2 µM. Also, the TGI in [7] was determined as 34.7 µM; in test [8], 9.91 µM; in test [9], 0.126 µM.

As for `Cc1sc(C)c(-c2ccc(CO)o2)c1-c1ccc(CO)o1`, the GI50 in [1] is 48.9 µM; in test [2], 41.9 µM; in test [4], 2.88 µM; in test [5] it was 96.6 µM; in test [6], over 100 µM; in [7], 0.372 µM. For the same compound, the GI50 in test [8] was 16.5 µM; in test [9], 0.124 µM. Besides, the TGI in test [1], in test [2], in test [3], in test [4], in test [5] and in test [6] was over 100 µM throughout. The TGI in [7] was over 100 µM; in test [8], over 100 µM; in [9] it was 0.388 µM.

In the case of `Clc1ccc(CNc2nc3ccccc3nc2-c2cccs2)c(Cl)c1`, the TGI in test [1], in [3], in test [4], in test [5], in test [10] and in [6] was over 100 µM throughout. For the same compound, the TGI in [7] and in test [9] was over 100 µM each time.

Turning to `O=C1CCn2c([nH]c3cccc4cccc2c43)=N1`, the TGI in test [1], in test [3], in [4], in test [5], in [10] and in test [6] was over 100 µM in each case. The TGI in test [7], in test [8] and in test [9] was over 100 µM in each case.

In the case of `Cc1ccc(-c2nc(C(Cl)Cl)n3nc(-c4ccccc4)cc3n2)cc1`, the GI50 in test [1] was over 100 µM; in test [2] it was over 100 µM; in test [3], 0.676 µM; in test [5], over 100 µM; in test [7], 0.566 µM; in test [8] it was 2.56 µM. Further, the GI50 in test [9] was over 100 µM. Further, the TGI in test [1] is over 100 µM; in test [2] it was over 100 µM; in [3], 2.17 µM; in test [5] it was over 100 µM; in [7], 3.15 µM; in test [8], over 100 µM. Moreover, the TGI in test [9] is over 100 µM.

With `COc1ccc(C2=NC(C)(C)CO2)cc1`, the TGI in test [3], in test [4], in test [5], in [10], in [6] and in test [7] was over 100 µM throughout.
